# From US4076802A (priority 1977, dated 1978)
# Where two headings read alike, the source gives them in different places.
# How the values were obtained:
# [1] = tested on: Rhizoctonia solani (damping off diseases); assay: Activity against plant disease fungi on several crops; format: in vivo
# crown rust of oats = assay: Fungicidal activity; format: in vivo; details: spraying as 25% wettable powder
# mosquito larvae = assay: Larvicidal activity; format: in vivo
# [2] = tested on: Botrytis cinerea (grey mold diseases); assay: Activity against plant disease fungi on several crops; format: in vivo
# [3] = tested on: Paecilomyces varioti M16 (fungus); assay: Antifungal MIC, Table 5; format: cell-based; details: Culture ATCC 26820
# mice = assay: 24 hour acute toxicity in mice; format: in vivo
# KB cells = assay: KB monolayer cytotoxicity test; format: cell-based, human
# [4] = tested on: Uromyces species (cereal rust disease); assay: Activity against plant disease fungi on several crops; format: in vivo
# [5] = tested on: Piricularia oryzae (rice blast disease); details: in vivo
# [6] = tested on: Penicillium digitatum 0184 (mold); assay: Antifungal MIC, Table 5; format: cell-based; details: Culture ATCC 26821
# housefly = assay: Larvicidal activity; format: in vivo
# Solubility in solvents = format: physicochemical
# [7] = tested on: Candida albicans 155 (yeast); assay: Antifungal MIC, Table 5; format: cell-based; details: Culture NRRL 477
# army worm = assay: Larvicidal activity; format: in vivo
# [8] = tested on: Saccharomyces cerevisiae 90 (yeast); assay: Antifungal MIC, Table 5; format: cell-based; details: Culture ATCC 4226
# [9] = tested on: Puccinia species (cereal rust disease); assay: Activity against plant disease fungi on several crops; format: in vivo
# Colorado potato beetle = assay: Larvicidal activity; format: in vivo
# bean beetle = assay: Larvicidal activity; format: in vivo
# wood decay organisms = assay: Fungicidal activity; format: in vivo; details: spraying as 25% wettable powder
compound,measurement,setting,value
C/C=C/[C@H]1O[C@@](O)([C@@H](C)[C@H](O)[C@H](C)[C@H]2OC(=O)/C(OC)=C/C(C)=C/[C@@H](C)[C@@H](O)[C@@H](CC)[C@@H](O)[C@H](C)C/C(C)=C/C=C/[C@@H]2OC)C[C@@H](O[C@H]2C[C@@H](O)[C@H](OC(N)=O)[C@@H](C)O2)[C@@H]1C,activity against Rhizoctonia solani,[1],active
same,fungicidal activity,crown rust of oats,exhibits fungicidal activity
same,larvicidal activity,mosquito larvae; mosquito larvae,excellent activity
same,larvicidal activity,"mosquito larvae; mosquito, spraying",exhibits larvicidal activity
same,fungicidal activity,"[2]; grey mold, spraying as 25% wettable powder",exhibits fungicidal activity
same,activity against Botrytis cinerea,[2]; on several crops,active
same,MIC value,[3],3.33 µg/mL
same,24 hour acute toxicity (LD50),mice; i.p.,2.45 mg/kg
same,24 hour acute toxicity (LD50),mice; p.o.,21 mg/kg
same,ID50,KB cells,0.0045 µg/mL
same,activity against Uromyces species,[4],active
same,activity against Piricularia oryzae,[5],active
same,fungicidal activity,[5],exhibits fungicidal activity
same,MIC value,[6],3.33 µg/mL
same,larvicidal activity,housefly,excellent activity
same,solubility,Solubility in solvents; in 95% ethanol,47.5 mg/mL
same,solubility,Solubility in solvents; in acetone,> 100 mg/mL
same,solubility,Solubility in solvents; in benzyl alcohol,> 100 mg/mL
same,solubility,Solubility in solvents; in dimethylformamide,> 100 mg/mL
same,solubility,Solubility in solvents; in glycerine,< 1 mg/mL
same,solubility,Solubility in solvents; in methanol,> 100 mg/mL
same,solubility,Solubility in solvents; in polyethylene glycol 400,< 1 mg/mL
same,solubility,Solubility in solvents; in propylene glycol,< 1 mg/mL
same,solubility,Solubility in solvents; in tetrahydrofuran,> 100 mg/mL
same,solubility,Solubility in solvents; in water,< 1 mg/mL
same,MIC value,[7],1.11 µg/mL
same,larvicidal activity,army worm,excellent activity
same,MIC value,[8],3.33 µg/mL
same,activity against Puccinia species,[9],active
same,larvicidal activity,Colorado potato beetle,excellent activity
same,larvicidal activity,Colorado potato beetle; spraying on leaves,exhibits larvicidal activity
same,larvicidal activity,bean beetle,excellent activity
same,larvicidal activity,bean beetle; spraying on leaves,exhibits larvicidal activity
same,fungicidal activity,wood decay organisms,exhibits fungicidal activity
